{"source": "patent US5380715A", "about": "“Ap4 A as a hypotensive agent” (Fujirebio Inc., priority 1992, dated 1995)", "key": {"[1]": {"tested_on": "rats", "assay": "Gradual hypotension during anesthesia in rats", "assay_type": "in vivo, male SD rats", "settings": "rat", "method": "Male SD rats (Charles River Japan Inc.) were anesthetized with intravenous thiopental 50 mg/kg as a bolus, followed by 1% enflurane in air.\nA femoral artery was catheterized to monitor the blood pressure and heart rate, while a femoral vein was catheterized for the administration of each of the test drugs.\nThe control values were obtained before the administration of each test drug. Each test drug was then administered using a syringe in a dose-dependent manner for 15 minutes. The percentage (%) of the decrease of blood pressure was determined when stabilized. Changes in heart rate (H.R.) at the administration of each test drug were measured. Furthermore,the recovery of mean blood pressure after intravenous infusion of each test drug was also determined from the decrease in heart rate and the blood pressure at a maximum dose of each test drug."}, "[2]": {"tested_on": "rabbit platelet aggregation", "assay": "Inhibitory effect on rabbit platelet aggregation", "assay_type": "cell-based", "settings": "for IC50: Oryctolagus cuniculus, Platelet", "method": "Fresh blood samples were collected from male Japanese white rabbits weighing 2-3 kg. Blood was anticoagulated with citric acid (1 ml 3.8% citric acid solution +9 ml blood). These samples were centrifuged at room temperature for 20 min at 200×g to obtained platelet-rich plasma (PRP). Furthermore, the supernatant liquid was centrifuged for 10 min at 1500×g to obtained platelet-poor plasma (PPP). Aggregation of platelests was measured photometrically in a Nihon Kohden hema tracer equipped with a mechanical stirring device and with a chart record. At this time, the chart recorder was calibrated as follows: the light transmission obtained with PPP was set as 100% transmission and the optical density of PRP was taken as 0% transmission. Maximal aggregation, i.e. the maximal change in optical density of the primary wave calculated in percent light transmission. From the study, it was determined that ADP, Ap3A, PAF(platelet activating factor) and collagen induced maximal aggregations at a concentration of 1×10^-5 M, 1×10^-4 M, 1.9×10^-7 M and 5 μg/kg, respectively. In the following studies, these aggregating agents were used at maximal dose. The effect of Ap4A on platelet aggregation by ADP and Ap3A were tested. In this time, Ap4A was pretreated for 1 or 10 min before the addition of aggregating agents. Also, after the platelet aggregation was induced by addition of ADP, PAF or collagen to PRP, the platelet aggregate dispersing effect of Ap4A was tested."}, "[3]": {"tested_on": "human platelet-aggregation", "settings": "words; cited from earlier work"}, "[4]": {"settings": "enflurane, infusion 1 μg/kg/min"}, "[5]": {"settings": "enflurane, infusion 3 μg/kg/min"}, "[6]": {"settings": "enflurane, infusion 10 μg/kg/min"}, "[7]": {"settings": "enflurane, infusion 30 μg/kg/min"}, "[8]": {"settings": "enflurane, infusion 100 μg/kg/min"}, "[9]": {"settings": "enflurane, infusion 300 μg/kg/min"}, "[10]": {"settings": "enflurane, infusion 1000 μg/kg/min"}, "[11]": {"settings": "enflurane, infusion 3000 μg/kg/min"}}, "note": "“Also recorded” adds a separate entry of the source. Where two headings read alike, the source gives them in different places."}
{"smiles": "Nc1ncnc2c1ncn2[C@@H]1O[C@H](COP(=O)(O)OP(=O)(O)OP(=O)(O)OP(=O)(O)OC[C@H]2O[C@@H](n3cnc4c(N)ncnc43)[C@H](O)[C@@H]2O)[C@@H](O)[C@H]1O", "note": "[Ap4A, diadenosine 5',5'\"-p^1,p^4 -tetraphosphate]", "values": [{"measurement": "administration that gradually decreased blood pressure", "setting": "[1]; enflurane", "value": "≥ 10", "unit": "µg/kg/min"}, {"measurement": "fall in blood pressure", "setting": "[1]; enflurane, 300 μg/kg/min", "value": "about 40%"}, {"measurement": "fall in blood pressure", "setting": "[1]; enflurane, 1000 μg/kg/min or more", "value": "≥ 60", "unit": "%"}, {"measurement": "Blood Pressure (Δ%)", "setting": "[1]; [4]", "value": 0, "unit": "%"}, {"measurement": "Heart Rate (Δ%)", "setting": "[1]; [4]", "value": 0, "unit": "%"}, {"measurement": "Blood Pressure (Δ%)", "setting": "[1]; [5]", "value": 0, "unit": "%"}, {"measurement": "Heart Rate (Δ%)", "setting": "[1]; [5]", "value": 0, "unit": "%"}, {"measurement": "Blood Pressure (Δ%)", "setting": "[1]; [6]", "value": "-4.7 ± 0.6", "unit": "%"}, {"measurement": "Heart Rate (Δ%)", "setting": "[1]; [6]", "value": "1.3 ± 0.6", "unit": "%"}, {"measurement": "Blood Pressure (Δ%)", "setting": "[1]; [7]", "value": "-10.2 ± 1.1", "unit": "%"}, {"measurement": "Heart Rate (Δ%)", "setting": "[1]; [7]", "value": "2.7 ± 0.8", "unit": "%"}, {"measurement": "Blood Pressure (Δ%)", "setting": "[1]; [8]", "value": "-22.9 ± 1.2", "unit": "%"}, {"measurement": "Heart Rate (Δ%)", "setting": "[1]; [8]", "value": "2.4 ± 1.0", "unit": "%"}, {"measurement": "Blood Pressure (Δ%)", "setting": "[1]; [9]", "value": "-43.5 ± 2.2", "unit": "%"}, {"measurement": "Heart Rate (Δ%)", "setting": "[1]; [9]", "value": "-6.6 ± 1.2", "unit": "%"}, {"measurement": "Blood Pressure (Δ%)", "setting": "[1]; [10]", "value": "-58.6 ± 1.8", "unit": "%"}, {"measurement": "Heart Rate (Δ%)", "setting": "[1]; [10]", "value": "-15.9 ± 1.9", "unit": "%"}, {"measurement": "Blood Pressure (Δ%)", "setting": "[1]; [11]", "value": "-65.8 ± 1.2", "unit": "%"}, {"measurement": "Heart Rate (Δ%)", "setting": "[1]; [11]", "value": "-24.9 ± 2.4", "unit": "%"}, {"measurement": "decrease of heart rate", "setting": "[1]; enflurane, result in words", "value": "A significant decrease of heart rate was observed at about 60% fall in blood pressure"}, {"measurement": "stability of hypotensive effect at each dose", "setting": "[1]; result in words", "value": "did not significantly change the blood pressure attained by each dose"}, {"measurement": "time to submaximal/maximum anti-platelet aggregating effect", "setting": "[2]", "value": "≤ 1", "unit": "min"}, {"measurement": "inhibition of platelet aggregation", "setting": "[2]; ADP- and Ap3A-induced, result in words", "value": "Both ADP- and Ap3A-induced platelet aggregations were inhibited; also recorded: inhibits ADP-induced and Ap3A (diadenosine 5', 5'\"-p^1,p^4 -triphosphate)-induced platelet-aggregation reactions"}, {"measurement": "IC50", "setting": "[2]; read-out: Ap4A IC50, ADP (1 × 10^-5 M) induced, 1 min. pretreatment", "value": 205, "unit": "µM"}, {"measurement": "IC50", "setting": "[2]; read-out: Ap4A IC50, ADP (1 × 10^-5 M) induced, 10 min. pretreatment", "value": 42, "unit": "µM"}, {"measurement": "IC50", "setting": "[2]; read-out: Ap4A IC50, Ap3A (1 × 10^-4 M) induced, 1 min. pretreatment", "value": 9.06, "unit": "µM"}, {"measurement": "IC50", "setting": "[2]; read-out: Ap4A IC50, Ap3A (1 × 10^-4 M) induced, 10 min. pretreatment", "value": 49.9, "unit": "µM"}, {"measurement": "time to substantially maximum inhibitory effect", "setting": "[2]; result in words", "value": "substantially maximum effect is obtained within one minute"}, {"measurement": "ADP-induced human platelet-aggregation inhibitory effect", "setting": "[3]", "value": "ADP-induced human platelet-aggregation inhibitory effect"}]}
